From patent US12251459B2, “Compositions, formulations, and methods for hair treatment” (Oddity Labs, LLC, priority 2022, dated 2025)

Test system: human hair follicle dermal papilla cells (hFDPC)
Assay: Human follicle dermal papilla cells (hFDPC) proliferation assay
Format: cell-based
Details: hFDPCs supplemented with BIO, BMP-2 and FGFβ
Excerpt: In Table 8, A represents less than 20% of increased proliferation of hFDPCs, B represents 20-40%, and C represents larger than 40% of increased proliferation of hFDPCs.

SMILES	Percent Increase Proliferation of hFDPCs (%)
C=CCc1cc(/C=C2\C(=O)NC(=O)N(c3ccc(C(C)C)cc3)C2=O)cc(OC)c1O [I-1]	A (A represents less than 20% of increased proliferation of hFDPCs)
C=CCc1cc(/C=C2\C(=O)NC(=O)N(c3cc(C)cc(C)c3)C2=O)cc(OCC)c1O [I-2, 2,4,6(1H,3H,5H)-Pyrimidinetrione, 1-(3,5-dimethylphenyl)-5-[[3-ethoxy-4-hydroxy-5-(2-propen-1-yl)phenyl]methylene]-]	B (B represents 20-40%)
C=CCc1cc(/C=C2\C(=O)NC(=O)N(c3cc(C)cc(C)c3)C2=O)cc(OC)c1O [I-3, 2,4,6(1H,3H,5H)-Pyrimidinetrione, 1-(3,5-dimethylphenyl)-5-[[4-hydroxy-3-methoxy-5-(2-propen-1-yl)phenyl]methylene]-]	A (A represents less than 20% of increased proliferation of hFDPCs)
C=CCc1cc(/C=C2\C(=O)NC(=O)N(c3ccc(C)c(C)c3)C2=O)cc(OC)c1O [I-4]	A (A represents less than 20% of increased proliferation of hFDPCs)
COc1cc(/C=C2\C(=O)NC(=O)N(Cc3ccccc3)C2=O)cc(OC)c1O [I-5, 2,4,6(1H,3H,5H)-Pyrimidinetrione, 5-[(4-hydroxy-3,5-dimethoxyphenyl)methylene]-1-(phenylmethyl)-]	B (B represents 20-40%)
C=CCN1C(=O)NC(=O)/C(=C\c2ccc(OC)cc2OC)C1=O [I-6, 2,4,6(1H,3H,5H)-Pyrimidinetrione, 5-[(2,4-dimethoxyphenyl)methylene]-1-(2-propen-1-yl)-]	A (A represents less than 20% of increased proliferation of hFDPCs)
C=CCOc1ccc(/C=C2/C(=O)NC(=O)N(CC=C)C2=O)cc1OC [I-7]	A (A represents less than 20% of increased proliferation of hFDPCs)
C=CCc1cc(C=C2C(=O)NC(=S)NC2=O)cc(OCC)c1O [I-8]	B (B represents 20-40%)
C=CCc1cc(C=C2C(=O)NC(=S)NC2=O)cc(OC)c1O [I-9, 4,6(1H,5H)-Pyrimidinedione, dihydro-5-[[4-hydroxy-3-methoxy-5-(2-propen-1-yl)phenyl]methylene]-2-thioxo-]	B (B represents 20-40%)
C=CCc1cc(/C=C2\C(=O)NC(=S)N(C)C2=O)cc(OC)c1OCC [I-10]	A (A represents less than 20% of increased proliferation of hFDPCs)
COc1ccc(/C=C2\C(=O)NC(=O)N(C)C2=O)c(OC)c1 [I-11, 2,4,6(1H,3H,5H)-Pyrimidinetrione, 5-[(2,4-dimethoxyphenyl)methylene]-1-methyl-, (5E)-]	A (A represents less than 20% of increased proliferation of hFDPCs)
CCCCN1CCc2cc(/C=C3\C(=O)NC(=O)N(C)C3=O)ccc21 [I-12, 2,4,6(1H,3H,5H)-Pyrimidinetrione, 5-[(1-butyl-2,3-dihydro-1H-indol-5-yl)methylene]-1-methyl-]	B (B represents 20-40%)
CN1C(=O)NC(=O)/C(=C/c2cnc(N(C)C)nc2)C1=O [I-13, 2,4,6(1H,3H,5H)-Pyrimidinetrione, 5-[[2-(dimethylamino)-5-pyrimidinyl]methylene]-1-methyl-]	A (A represents less than 20% of increased proliferation of hFDPCs)
CN1C(=O)NC(=O)/C(=C\c2cccc(OCC(=O)O)c2)C1=O [I-14]	A (A represents less than 20% of increased proliferation of hFDPCs)
COc1cc([N+](=O)[O-])cc(/C=C2\C(=O)NC(=O)N(C)C2=O)c1O [I-15, 2,4,6(1H,3H,5H)-Pyrimidinetrione, 5-[(2-hydroxy-3-methoxy-5-nitrophenyl)methylene]-1-methyl-]	B (B represents 20-40%)
C=CCc1cc(/C=C2\C(=O)NC(=O)N(C)C2=O)cc(OC)c1O [I-16]	A (A represents less than 20% of increased proliferation of hFDPCs)
Cc1ccc(-c2nnc(N3CCN(C(=O)C4CCCCC4)CC3)c3ccccc23)cc1 [II-1, Methanone, cyclohexyl[4-[4-(4-methylphenyl)-1-phthalazinyl]-1-piperazinyl]-]	A (A represents less than 20% of increased proliferation of hFDPCs)
Cc1ccc(C(=O)N2CCN(c3nnc(-c4ccc(C)cc4)c4ccccc34)CC2)cc1 [II-2, Methanone, (4-methylphenyl)[4-[4-(4-methylphenyl)-1-phthalazinyl]-1-piperazinyl]-]	B (B represents 20-40%)

SMILES	Percent Increase Proliferation of hFDPCs (%)
Cc1ccc(-c2nnc(N3CCN(S(C)(=O)=O)CC3)c3ccccc23)cc1 [II-3, Phthalazine, 1-(4-methylphenyl)-4-[4-(methylsulfonyl)-1-piperazinyl]-]	B (B represents 20-40%)
Cc1ccc(OCC(=O)N2CCN(c3nnc(-c4ccc(C)cc4)c4ccccc34)CC2)cc1 [II-5, Ethanone, 2-(4-methylphenoxy)-1-[4-[4-(4-methylphenyl)-1-phthalazinyl]-1-piperazinyl]-]	B (B represents 20-40%)
CCCC(=O)N1CCN(c2nnc(-c3ccc(C)cc3)c3ccccc23)CC1 [II-6, 1-Butanone, 1-[4-[4-(4-methylphenyl)-1-phthalazinyl]-1-piperazinyl]-]	B (B represents 20-40%)
COc1ccc(N2CCN(C(=O)c3cc(-c4cccs4)nc4ccccc34)CC2)cc1 [III-1, Methanone, [4-(4-methoxyphenyl)-1-piperazinyl][2-(2-thienyl)-4-quinolinyl]-]	A (A represents less than 20% of increased proliferation of hFDPCs)
Cc1cccc(Cn2cnc(NC(=O)c3cc(-c4cccnc4)nc4ccc(C)cc34)n2)c1 [III-2, 4-Quinolinecarboxamide, 6-methyl-N-[1-[(3-methylphenyl)methyl]-1H-1,2,4-triazol-3-yl]-2-(3-pyridinyl)-]	A (A represents less than 20% of increased proliferation of hFDPCs)
Cc1cc(C)n(Cc2ccc(NC(=O)c3cc(-c4ccc(C)c(C)c4)nc4ccccc34)cc2)n1 [III-3, 4-Quinolinecarboxamide, 2-(3,4-dimethylphenyl)-N-[4-[(3,5-dimethyl-1H-pyrazol-1-yl)methyl]phenyl]-]	B (B represents 20-40%)
CCOCCc1nnc(NC(=O)c2cc(-c3ccccc3)nc3ccccc23)s1 [III-4, 4-Quinolinecarboxamide, N-[5-(2-ethoxyethyl)-1,3,4-thiadiazol-2-yl]-2-phenyl-]	B (B represents 20-40%)
Cc1ccc(-c2cc(C(=O)NNC(=O)NC34CC5CC(CC(C5)C3)C4)c3ccccc3n2)c(C)c1 [III-5, 4-Quinolinecarboxylic acid, 2-(2,4-dimethylphenyl)-, 2-[(tricyclo[3.3.1.1^3,7]dec-1-ylamino)carbonyl]hydrazide]	A (A represents less than 20% of increased proliferation of hFDPCs)
CC(C)(C)Nc1nnc(SCc2cc(=O)oc3cc(O)ccc23)s1 [IV-1, 2H-1-Benzopyran-2-one, 4-[[[5-[(1,1-dimethylethyl)amino]-1,3,4-thiadiazol-2-yl]thio]methyl]-7-hydroxy-]	B (B represents 20-40%)
CSc1nnc(SCc2cc(=O)oc3cc(O)ccc23)s1 [IV-2, 2H-1-Benzopyran-2-one, 7-hydroxy-4-[[[5-(methylthio)-1,3,4-thiadiazol-2-yl]thio]methyl]-]	A (A represents less than 20% of increased proliferation of hFDPCs)
COc1ccccc1-n1c(SCc2cc(=O)oc3cc(O)ccc23)nc2ccccc2c1=O [IV-3, 4(3H)-Quinazolinone, 2-[[(7-hydroxy-2-oxo-2H-1-benzopyran-4-yl)methyl]thio]-3-(2-methoxyphenyl)-]	B (B represents 20-40%)
CCC(C)Cc1c(C)sc2[nH]c(SCc3cc(=O)oc4cc(O)ccc34)nc(=O)c12 (stereo not drawn) [IV-4, Thieno[2,3-d] pyrimidin-4(1H)-one, 2-[[(7-hydroxy-2-oxo-2H-1-benzopyran-4-yl)methyl]thio]-6-methyl-5-(2-methylbutyl)-]	A (A represents less than 20% of increased proliferation of hFDPCs)
Cc1ccc(Cn2ncc3c(N4CCCC4)ncnc32)cc1 [V-1, 1H-Pyrazolo[3,4-d] pyrimidine, 1-[(4-methylphenyl)methyl]-4-(1-pyrrolidinyl)-]	A (A represents less than 20% of increased proliferation of hFDPCs)
Cc1ccc(-n2ncc3c(N4CCCCC4)ncnc32)c(C)c1 [V-2, 1H-Pyrazolo[3,4-d] pyrimidine, 1-(2,4-dimethylphenyl)-4-(1-piperidinyl)-]	A (A represents less than 20% of increased proliferation of hFDPCs)
CC1CCCCN1c1nc(-c2ccccc2)nc2sc(-c3ccccc3)cc12 (stereo not drawn) [V-3, Thieno[2,3-d] pyrimidine, 4-(2-methyl-1-piperidinyl)-2,6-diphenyl-]	B (B represents 20-40%)
CCS(=O)(=O)N1CCN(c2ncnc3cc[nH]c23)CC1 [V-4, 5H-Pyrrolo[3,2-d] pyrimidine, 4-[4-(ethylsulfonyl)-1-piperazinyl]-]	A (A represents less than 20% of increased proliferation of hFDPCs)
O=C(C1CCN(S(=O)(=O)c2ccccc2)CC1)N1CCN(Cc2ccc3c(c2)OCO3)CC1 [VI-1, Methanone, [4-(1,3-benzodioxol-5-ylmethyl)-1-piperazinyl][1-(phenylsulfonyl)-4-piperidinyl]-]	A (A represents less than 20% of increased proliferation of hFDPCs)
N#Cc1ccc(S(=O)(=O)N2CCC(C(=O)N3CCN(Cc4ccc5c(c4)OCO5)CC3)CC2)cc1 [VI-2, Benzonitrile, 4-[[4-[[4-(1,3-benzodioxol-5-ylmethyl)-1-piperazinyl]carbonyl]-1-piperidinyl]sulfonyl]-]	B (B represents 20-40%)
